From US20240352000A1, “NOVEL PYRIMIDINE-2,4-DIAMINE DERIVATIVES, PREPARATION METHOD THEREFOR, AND PHARMACEUTICAL COMPOSITION CONTAINING SAME AS ACTIVE INGREDIENT FOR PREVENTION OR TREATMENT OF CANCER” (KOREA RESEARCH INSTITUTE OF CHEMICAL TECHNOLOGY, priority 2021, published 2024)

Tests used:
[1] = target: EGFR del19/T790M (Homo sapiens (Human), UniProt P00533, DEL746-750/T790M); experiment: HTRF enzyme assay, EGFR del19/T790M mutant enzyme; format: biochemical; conditions: recombinant enzyme, 37° C. 2 hours
EGFR del19/T790M, sequence (P00533 other isoform, or with tags, fused parts or gaps T790M/del 1-668/del 746-750 limits assumed): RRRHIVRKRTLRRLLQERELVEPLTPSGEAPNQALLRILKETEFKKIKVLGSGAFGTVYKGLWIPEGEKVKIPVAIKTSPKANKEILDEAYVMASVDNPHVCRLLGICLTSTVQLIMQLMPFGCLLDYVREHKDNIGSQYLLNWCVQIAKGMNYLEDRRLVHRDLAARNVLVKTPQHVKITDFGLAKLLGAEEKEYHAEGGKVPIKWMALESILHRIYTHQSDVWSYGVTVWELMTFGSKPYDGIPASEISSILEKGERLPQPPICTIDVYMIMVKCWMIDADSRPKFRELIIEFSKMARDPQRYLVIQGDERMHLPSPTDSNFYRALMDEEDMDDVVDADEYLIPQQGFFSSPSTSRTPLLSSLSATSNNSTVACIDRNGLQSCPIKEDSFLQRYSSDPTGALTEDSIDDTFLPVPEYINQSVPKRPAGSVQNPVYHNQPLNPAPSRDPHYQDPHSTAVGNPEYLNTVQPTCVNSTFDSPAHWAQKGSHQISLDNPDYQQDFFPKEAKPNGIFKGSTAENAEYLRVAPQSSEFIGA
Method: (§1) An experiment to measure the activity of the compounds of the present invention against EGFR mutant enzymes was performed as follows using the HTRF system sold by Cisbio. For the EGFR del19/T790M mutant enzyme, a recombinant protein provided by Carna Biosciences was purchased and used, and for the EGFR del19/T790M/C797S mutant enzyme, a protein provided by SignalChem was purchased and used as an enzyme source.
(§2) The composition of the assay buffer used for measuring the activity was 50 mM Tris-HCl pH 7.5, 100 mM NaCl, 7.5 mM MgCl2, 3 mM KCl, 0.01% Tween 20, 0.1% BSA, and 1 mM DTT. Here, an enzyme reaction was performed using ATP at a concentration of […] and a peptide substrate labeled with biotin at a concentration of […]. Analysis of the inhibitory effect of the compounds against the EGFR activity was conducted according to the following analysis reaction recipe. • Component 1: 4 μL of an EGFR mutant enzyme • Component 2: 2 μL of a compound solution • Component 3: 4 μL of ATP and a peptide labeled with biotin
(§3) The enzyme reaction was started by first mixing Component 1 and Component 2 and then adding Component 3. After reaction at 37° C. for 2 hours, […] of measurement solution consisting of streptavidin-XL665 and europium-labeled anti-phosphotyrosine antibody provided by Cisbio was added to the enzyme reaction solution and reacted at room temperature for 1 hour. Finally, the ratio of fluorescence values at 615 nm and 665 nm was obtained using the Envision equipment from Perkin-Elmer to quantitatively measure the enzyme activity and confirmed the inhibitory ability of the compounds. The measurement values measured at seven compound concentrations were analyzed using the Prism program (version 5.01, Graphpad Software, Inc.), and the IC50 value, which is an indicator of the inhibitory ability of the compound, was calculated.

[2] = target: EGFR del19/T790M/C797S (Homo sapiens (Human), UniProt P00533, C797S/DEL746-750/T790M); experiment: HTRF enzyme assay, EGFR del19/T790M/C797S mutant enzyme; format: biochemical; conditions: enzyme from SignalChem, 37° C. 2 hours
EGFR del19/T790M/C797S, sequence (P00533 other isoform, or with tags, fused parts or gaps T790M/C797S/del 1-694/del 746-750 limits assumed): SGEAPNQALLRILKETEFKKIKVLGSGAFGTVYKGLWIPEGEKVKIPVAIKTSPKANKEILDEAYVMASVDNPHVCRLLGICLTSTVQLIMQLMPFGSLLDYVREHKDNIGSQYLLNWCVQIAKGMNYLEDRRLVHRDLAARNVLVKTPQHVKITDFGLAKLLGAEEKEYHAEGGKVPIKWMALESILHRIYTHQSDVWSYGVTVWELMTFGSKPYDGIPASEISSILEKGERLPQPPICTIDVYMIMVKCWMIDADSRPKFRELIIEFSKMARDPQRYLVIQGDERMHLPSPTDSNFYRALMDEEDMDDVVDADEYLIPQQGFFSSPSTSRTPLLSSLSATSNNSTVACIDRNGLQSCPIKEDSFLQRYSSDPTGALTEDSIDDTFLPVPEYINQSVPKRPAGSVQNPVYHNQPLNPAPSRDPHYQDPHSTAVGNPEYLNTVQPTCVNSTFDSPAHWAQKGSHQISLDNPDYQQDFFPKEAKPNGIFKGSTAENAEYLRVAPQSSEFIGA
Method: as §1, §2, §3

[3] = test system: Ba/F3 EGFR del19; experiment: CellTiter-Glo cell viability, Ba/F3 EGFR del19; format: cell-based; conditions: 72 hours
Method: (§4) An experiment to measure the activity of the compounds of the present invention against the mutant Ba/F3 EGFR cell line was performed as follows using the CellTiter-Glo system sold by Promega. The CellTiter-Glo assay is a method to confirm the cell viability by measuring ATP present in cells in cell culture. For the Ba/F3 EGFR del19, Ba/F3 EGFR del19/T790M, Ba/F3 del19/T790M/C797S mutant cell line, a cell line provided by Crown Bioscience was purchased and used. The Ba/F3 EGFR del19, Ba/F3 EGFR del19/T790M, Ba/F3 del19/T790M/C797S mutant cell line was cultured in RPMI containing 10% FBS and 1% penicillin-streptomycin with 1 μg of puromycin in an incubator at 37° C. and 5% CO2.
(§5) Analysis of the inhibitory ability effect of the compounds against EGFR was conducted according to the following analysis reaction recipe.
(§6) 2500 cells/90 μL were passaged and cultured in a 96-well cell culture plate, and after 24 hours, treated with the compound represented by Formula 1 at a concentration of 0, 0.01, 0.03, 0.1, 0.3, 1, 3, and 10 (μM). After reaction for 72 hours, the plate treated with the compound was left at room temperature for 30 minutes, then further treated with 100 μl of reagent, and shaken at room temperature for 10 minutes. Finally, the ratio of fluorescence values at 570 nm was obtained using the equipment to quantitatively measure and confirmed the inhibitory ability of the compounds. The measurement values measured at eight compound concentrations were analyzed using the Prism program (version 5.01, Graphpad Software, Inc.), and the IC50 value, which is an indicator of the inhibitory ability of the compound, was calculated.

[4] = test system: Ba/F3 EGFR del19/T790M; experiment: CellTiter-Glo cell viability, Ba/F3 EGFR del19/T790M; format: cell-based; conditions: 72 hours
Method: as §4, §5, §6

[5] = test system: Ba/F3 EGFR del19/T790M/C797S; experiment: CellTiter-Glo cell viability, Ba/F3 EGFR del19/T790M/C797S; format: cell-based; conditions: 72 hours
Method: as §4, §5, §6

[6] = test system: Ba/F3 EGFR L858R; experiment: CellTiter-Glo cell viability, Ba/F3 EGFR L858R; format: cell-based; conditions: 72 hours
Method: (§7) An experiment to measure the activity of the compounds of the present invention against the mutant Ba/F3 EGFR cell line was performed as follows using the CellTiter-Glo system sold by Promega. The CellTiter-Glo assay is a method to confirm the cell viability by measuring ATP present in cells in cell culture. The Ba/F3 EGFR L858R, Ba/F3 EGFR L858R/T790M, Ba/F3 EGFR L858R/T790M/C797S mutant cell line was used. The Ba/F3 EGFR L858R, Ba/F3 EGFR L858R/T790M, and Ba/F3 EGFR L858R/T790M/C797S mutant cell lines was cultured in RPMI containing 10% FBS and 1% penicillin-streptomycin with 1 μg of puromycin in an incubator at 37° C. and 5% CO2.
as §5
as §6, with “μl” for “μL”

[7] = test system: Ba/F3 EGFR L858R/T790M; experiment: CellTiter-Glo cell viability, Ba/F3 EGFR L858R/T790M; format: cell-based; conditions: 72 hours
Method: as §7, §5
as §6, with “μl” for “μL”

[8] = test system: Ba/F3 EGFR L858R/T790M/C797S; experiment: CellTiter-Glo cell viability, Ba/F3 EGFR L858R/T790M/C797S; format: cell-based; conditions: 72 hours
Method: as §7, §5
as §6, with “μl” for “μL”

SMILES	IC50 [1] [nM]	IC50 [2] [nM]	IC50 [3] [nM]	IC50 [4] [nM]	IC50 [5] [nM]	IC50 [6] [nM]	IC50 [7] [nM]	IC50 [8] [nM]
COc1cc(N2CCC(N(C)C)CC2)ccc1Nc1ncc(Cl)c(Nc2cccc3c2N(S(C)(=O)=O)CC3)n1 [Example 1, 5-chloro-N2-(4-(4-(dimethylamino)piperidin-1-yl)-2-methoxyphenyl)-N4-(1-(methylsulfonyl)indolin-7-yl)pyrimidine-2,4-diamine]	< 1	< 1	< 30	< 30	< 100	< 30	< 30	< 100
COc1cc(N(C)CCN(C)C)ccc1Nc1ncc(Cl)c(Nc2cccc3c2N(S(C)(=O)=O)CC3)n1 [Example 3, 5-chloro-N2-(4-((2-(dimethylamino)ethyl)(methyl)amino)-2-methoxyphenyl)-N4-(1-(methylsulfonyl)indolin-7-yl)pyrimidine-2,4-diamine]			< 100	< 100	> 100	> 100	> 100	
COc1cc(N2CCC(N(C)C)CC2)ccc1Nc1ncc(Cl)c(Nc2cccc3c2N(S(C)(=O)=O)CCC3)n1 [Example 4, 5-chloro-N2-(4-(4-(dimethylamino)piperidin-1-yl)-2-methoxyphenyl)-N4-(1-(methylsulfonyl)-1,2,3,4-tetrahydroquinolin-8-yl)pyrimidine-2,4-diamine]	< 1	< 1	< 30	< 30	< 30	< 100	< 100	
COc1cc(N(C)CCN(C)C)ccc1Nc1ncc(Cl)c(Nc2cccc3c2N(S(C)(=O)=O)CCC3)n1 [Example 6, 5-chloro-N2-(4-((2-(dimethylamino)ethyl)(methyl)amino)-2-methoxyphenyl)-N4-(1-(methylsulfonyl)-1,2,3,4-tetrahydroquinolin-8-yl)pyrimidine-2,4-diamine]	1	< 1	< 100	< 100	> 100	> 100	< 100	
COc1cc(N2CCC(N3CCN(C)CC3)CC2)ccc1Nc1ncc(C)c(Nc2cccc3c2N(S(C)(=O)=O)CC3)n1 [Example 7, N2-(2-methoxy-4-(4-(4-methylpiperazin-1-yl)piperidin-1-yl)phenyl)-5-methyl-N4-(1-(methylsulfonyl)indolin-7-yl)pyrimidine-2,4-diamine]	< 1	< 1	< 30	< 100	> 100	< 30	< 100	> 100
COc1cc(N2CCC(N3CCN(C)CC3)CC2)ccc1Nc1ncc(F)c(Nc2cccc3c2N(S(C)(=O)=O)CC3)n1 [Example 8, 5-fluoro-N2-(2-methoxy-4-(4-(4-methylpiperazin-1-yl)piperidin-1-yl)phenyl)-N4-(1-(methylsulfonyl)indolin-7-yl)pyrimidine-2,4-diamine]	< 1	< 1	< 100	> 100	> 100	< 30	< 100	> 100
COc1cc(N2CCC(N3CCN(C)CC3)CC2)ccc1Nc1ncc(C(F)(F)F)c(Nc2cccc3c2N(S(C)(=O)=O)CC3)n1 [Example 9, N2-(2-methoxy-4-(4-(4-methylpiperazin-1-yl)piperidin-1-yl)phenyl)-N4-(1-(methylsulfonyl)indolin-7-yl)-5-(trifluoromethyl)pyrimidine-2,4-diamine]	< 1	< 1	< 30	< 30	> 100	< 100	< 30	> 100
COc1cc(N2CCC(N3CCN(C)CC3)CC2)ccc1Nc1ncc(C(=O)OC(C)C)c(Nc2cccc3c2N(S(C)(=O)=O)CC3)n1 [Example 10, isopropyl 2-((2-methoxy-4-(4-(4-methylpiperazin-1-yl)piperidin-1-yl)phenyl)amino)-4-((1-(methylsulfonyl)indolin-7-yl)amino)pyrimidine-5-carboxylate]	60	50	> 100	> 100	> 100	< 100	> 100	> 100
COC(=O)c1cnc(Nc2ccc(N3CCC(N4CCN(C)CC4)CC3)cc2OC)nc1Nc1cccc2c1N(S(C)(=O)=O)CC2 [Example 11, methyl 2-((2-methoxy-4-(4-(4-methylpiperazin-1-yl)piperidin-1-yl)phenyl)amino)-4-((1-(methylsulfonyl)indolin-7-yl)amino)pyrimidine-5-carboxylate]	2	5	< 100	> 100	> 100	< 100	< 100	> 100
